Drawing on US5116748A, “Process for the production of L-alanine dehydrogenase from 78-3 FERM BP-2517” (Toyo Jozo Kabushiki Kaisha, priority 1988, dated 1992), this text covers Km for two molecules.

Usually Km stands for the concentration of substrate that gives half-maximal velocity.

SMILES strings stand for the structures. Where two headings read alike, the source gives them in different places.

This test deals with L-alanine dehydrogenase from Sporolactobacillus sp. 78-3 (FERM BP-2517). Kind of test: Km-Value of L-alanine dehydrogenase (reductive amination, decrease of NADH at 340 nm). Format: biochemical. The note with it: purified enzyme. The method, then: Enzyme activity is measured by the following assay method:
The reaction mixture, 1 ml, in a 1 ml quartz cell is pre-incubated at 37° C. for 5 mins. Dilute enzyme solution, 0.02 ml with 50 mM triethanolamine buffer (pH 8.5) is added thereto and the mixture is stirred to initiate the reaction. Decrease of NADH is measured photometrically at 340 nm during the reaction. Enzyme activity is calculated by the following equation on the linear part of the curve: [formula] wherein T=reaction time (min.); X=dilution ratio.

`NC(=O)C1=CN([C@@H]2O[C@H](COP(=O)(O)OP(=O)(O)OC[C@H]3O[C@@H](n4cnc5c(N)ncnc54)[C@H](O)[C@@H]3O)[C@@H](O)[C@H]2O)C=CC1` [NADH]: the Michaelis-Menten constant (Km) (coenzyme NADH, read-out: Km-Value (NADH)) came out at 0.011 mM.

For the molecule `N` [NH4^+], the Km (substrate NH4+, read-out: Km-Value (NH4+)) was determined as 20 mM.
